Data reported in US20110206650A1, “Probiotic Formulations” (BRACCO IMAGING S.P.A., priority 2008, published 2011).

Columns and labels:
[1] = tested on: Staphylococcus epidermidis; settings: Ref. 22; cited from earlier work
[2] = acute oral semilethal dose (LD50) in mice; settings: mouse, in vivo
Description: Thus, DTPA is a safe oral drug, representing a preferred iron chelator for the compositions of the present invention.
It is therefore a further preferred iron chelator for the compositions of the invention.

mice = settings: cited from earlier work
[3] = tested on: Corynebacterium xerosis ATCC 7711; settings: Ref. 23; cited from earlier work
[4] = in vivo; cited from earlier work

Row | Structure (SMILES) | inhibition of growth of Staphylococcus epidermidis [1] | other results
1 | O=C(O)CN(CC(=O)O)[C@@H]1CCCC[C@H]1N(CC(=O)O)CC(=O)O (relative stereo) [CDTA, trans-1,2-diaminocyclohexane-N,N,N′,N′-tetraacetic acid] | inhibit the growth | –
2 | O=C(O)CN(CCN(CC(=O)O)CC(=O)O)CCN(CC(=O)O)C(COCc1ccccc1)C(=O)O (centres unmarked) [BOPTA, 4-carboxy-5,8,11-tris(carboxymethyl)-1-phenyl-2-oxa-5,8,11-triazatridecan-13-oic acid] | – | LD50 [2]: 8400 µmol/kg
3 | O=C(O)CN(CCN(CC(=O)O)CC(=O)O)CCN(CC(=O)O)CC(=O)O [DTPA, diethylenetriaminepentaacetic acid] | inhibit the growth | acute oral semilethal dose (LD50) (mice): 3500 mg/kg
4 | O=C(O)CN(CCN(CC(=O)O)CC(=O)O)CC(=O)O [EDTA, ethylenediaminetetraacetic acid] | inhibit the growth | –
5 | O=C(O)C[C@H](NCCN[C@@H](CC(=O)O)C(=O)O)C(=O)O [R,S-EDDS, R,S-ethylenediaminedisuccinic acid] | – | inhibition of growth of Corynebacterium xerosis ATCC 7711 [3]: inhibit growth
6 | O=C(O)CN(CCN(CCN(CC(=O)O)CC(=O)O)CC(=O)O)CCN(CC(=O)O)CC(=O)O [TTHA, triethylene-tetraaminehexaacetic acid] | inhibit the growth | –
7 | O=C([O-])CN(CCN(CC(=O)[O-])CC(=O)[O-])CCN(CC(=O)[O-])CC(=O)[O-].[H+].[H+].[Na+].[Na+].[Na+] [trisodium pentetate] | – | safety of oral dose [4]: proven to be safe
